The source of these data is PMC6321071, “Chenodeoxycholic Acid from Bile Inhibits Influenza A Virus Replication via Blocking Nuclear Export of Viral Ribonucleoprotein Complexes” (Molecules, 2018).

Where a name gives a salt, the structure may show the parent alone. Read-outs that look alike come from different tables or passages of the source.

Data set [1] relates to H5N1. The experiment in a line: microbe, parasite or virus in culture. It is filed as cell-based, Influenza A virus A/Duck/Guangdong/99 (H5N1). The note with it: Influenza A virus, H5N1, A549, read-out: IC50 (H5N1).
The test system of data set [2] is H9N2. The experiment in a line: microbe, parasite or virus in culture. It is filed as cell-based, Influenza A virus A/Chicken/Guangdong/96 (H9N2). The note with it: Influenza A virus, H9N2, A549, read-out: IC50 (H9N2).
Data set [3] deals with PR8 (H1N1). The experiment in a line: microbe, parasite or virus in culture. The note with it: Influenza A virus, A549, read-out: IC50 (PR8 (H1N1)). It is filed as cell-based, Influenza A virus A/Puerto Rico/8/34 (PR8).
The test system of data set [4] is H5N1. The experiment in a line: microbe, parasite or virus in culture. It is filed as cell-based, Influenza A virus A/Duck/Guangdong/99 (H5N1). The note with it: Influenza A virus, H5N1, MDCK, read-out: IC50 (H5N1).
Data set [5] concerns H9N2. As to the kind of experiment: microbe, parasite or virus in culture. The format is cell-based, Influenza A virus A/Chicken/Guangdong/96 (H9N2). The note with it: Influenza A virus, H9N2, MDCK, read-out: IC50 (H9N2).
Data set [6] concerns PR8 (H1N1). The experiment in a line: microbe, parasite or virus in culture. The format is cell-based, Influenza A virus A/Puerto Rico/8/34 (PR8). The note with it: Influenza A virus, MDCK, read-out: IC50 (PR8 (H1N1)).
For data set [7], the system named is influenza A virus (H5N1, H9N2, H1N1). The experiment in a line: microbe, parasite or virus in culture. The format is cell-based. The note with it: for IC50: Influenza A virus, read-out: IC50 range over three IAV subtypes.
Data set [8] in a line: MTT cytotoxicity assay on A549 cells. The note with it: human. In general terms: Formazan colour is commonly taken as a measure of viable cells.
The nature of data set [9]: MTT cytotoxicity assay on MDCK cells. The note with it: dog.
Data set [10] has as its system nuclear export of viral RNP complexes (H5N1). The format is cell-based, Influenza A virus A/Duck/Guangdong/99 (H5N1).
A further data set deals with H5N1 virus. The format is cell-based, Influenza A virus A/Duck/Guangdong/99 (H5N1).
The test system of data set [11] is PR8 (H1N1). The format is cell-based, Influenza A virus A/Puerto Rico/8/34 (PR8).
The test system of another data set is H9N2 virus. The format is cell-based, Influenza A virus A/Chicken/Guangdong/96 (H9N2).
The test system of data set [12] is H5N1. It is filed as cell-based, Influenza A virus A/Duck/Guangdong/99 (H5N1). The note with it: 60 μM.
The test system of data set [13] is H5N1. The format is cell-based, Influenza A virus A/Duck/Guangdong/99 (H5N1).
The test system of another data set is A549 cells. As to the kind of experiment: MTT cytotoxicity assay on A549 cells. The note with it: 48 or 72 h treatment, MTT.
The test system of another data set is MDCK cells. The experiment in a line: MTT cytotoxicity assay on MDCK cells. The note with it: 48 or 72 h treatment, MTT.

The term IC50 denotes the concentration at which inhibition is half-maximal. The term CC50 denotes the concentration that lowers cell viability or growth by half. Read a low CC50 as greater toxicity to the cells. As for `C[C@H](CCC(=O)O)[C@H]1CC[C@H]2[C@@H]3C[C@H](O)[C@@H]4C[C@H](O)CC[C@]4(C)[C@H]3CC[C@]12C` [HDCA, hyodeoxycholic acid], the IC50 with H5N1 [1] was 60 ± 5.5 µM; in the data set with H9N2 [2], 53 ± 6.5 µM; in the data set with PR8 (H1N1) [3], 73.7 ± 6.7 µM; in the data set on H5N1 [4], 41.2 ± 3.5 µM; with H9N2 [5], 31 ± 2.2 µM; in the data set with PR8 (H1N1) [6] it was 43.5 ± 2.7 µM. Moreover, in [7], the IC50 is 31 to 73.7 µM. Also, the CC50 was 486 ± 55 µM in data set [8] and 414 ± 33.7 µM in data set [9].
Consider `CCC(=C/[C@H](C)C/C=C/C(C)=C/[C@@H](C)C(=O)[C@@H](C)[C@H](O)[C@@H](C)C/C(C)=C/C(=O)O)/C=C/[C@@H]1OC(=O)C=C[C@@H]1C` [Leptomycin B (LMB), Leptomycin B], for which the “nuclear export of vRNP complexes” value in [10] is “efficiently blocked”.
In the case of `C[C@H](CCC(=O)O)[C@H]1CC[C@H]2[C@@H]3[C@H](O)C[C@@H]4C[C@H](O)CC[C@]4(C)[C@H]3CC[C@]12C` [CDCA, Chenodeoxycholic acid], the IC50 in the data set with H5N1 [1] was found to be 8.2 ± 1.2 µM; in the data set on H9N2 [2], 11.5 ± 1.7 µM; in the data set with PR8 (H1N1) [3], 7.7 ± 0.7 µM; in the data set with H5N1 [4], 6.5 ± 0.5 µM; with H9N2 [5], 5.5 ± 0.7 µM; in the data set on PR8 (H1N1) [6], 7.2 ± 0.7 µM. In data set [7], the IC50 is 5.5 to 11.5 µM. Moreover, the progeny virus titers entry in data set [7] is “significantly inhibited”. Also, the “H5N1 replication (CPE, NP expression)” value with H5N1 virus was “significantly inhibited”. For the same compound, the “anti-IAV activity, CPE (PR8 (H1N1))” value with PR8 (H1N1) [11] is recorded as “reduced CPE”. Also, in the data set on H9N2 virus, the “anti-IAV activity, CPE (H9N2)” value is “reduced CPE”. Also, the “decrease of progeny virus yield, post-treatment” value in the data set with H5N1 [12] was “more than 90%”. Besides, the “progeny virus yield and viral NP production, pretreatment” value in the data set on H5N1 [12] is on record as “did not reduce”. For the same compound, in the data set on H5N1 [12], the “virus replication, cotreatment” value is recorded as “did not affect”. In addition, in the data set on H5N1 [13] (60 μM), the “inhibition of virus replication (NP expression), added 4–6 and 6–8 hpi” value was “more significant inhibition”. For the same compound, the “early NP localization events (cytosol to nucleus translocation)” value in [10] was “did not affect”. Besides, the “nuclear export of vRNP complexes” value in [10] was “inhibited”. The 50% cytotoxic concentration (CC50) in data set [8] came to 372 ± 41.2 µM; in [9], 121 ± 9.7 µM. Further, the “concentrations with no obvious cytotoxicity” value is no more than 125 µM in the data set on A549 cells and no more than 62.5 µM in the data set on MDCK cells.
In the case of `C[C@H](CCC(=O)O)[C@H]1CC[C@H]2[C@@H]3[C@@H](O)C[C@@H]4C[C@H](O)CC[C@]4(C)[C@H]3CC[C@]12C` [UDCA, ursodeoxycholic acid], the IC50 with H5N1 [1] came to 34.2 ± 3.7 µM; with H9N2 [2] it was 58.7 ± 4.5 µM; with PR8 (H1N1) [3] it was 43 ± 4.5 µM; in the data set on H5N1 [4], 47.2 ± 3.2 µM; in the data set on H9N2 [5], 36.7 ± 3.5 µM; in the data set with PR8 (H1N1) [6], 56.2 ± 5 µM. For the same compound, the IC50 in data set [7] was 31 to 73.7 µM. The half-maximal cytotoxic concentration (CC50) was 815 ± 49.2 µM in data set [8] and 596 ± 53 µM in [9].
Take `NC(=O)c1ncn([C@@H]2O[C@H](CO)[C@@H](O)[C@H]2O)n1` [ribavirin, Ribavirin hydrochloride]: in [7] (90 μM), the “reduction of progeny virus production relative to 60 μM CDCA” value was “slightly more potent”. For the same compound, the “inhibition of H5N1 infection (CPE, NP expression)” value in the data set with H5N1 virus (90 μM) was “significant inhibition”. Also, in the data set on H5N1 [13], the “IAV inhibition (NP expression), added 6–8 hpi” value is listed as “no inhibition” and the “IAV inhibition (NP expression), added before 6 hpi” value is listed as “much better IAV inhibition”. Further, in data set [10], the “nuclear export of vRNP complexes” value is reported as “did not block”.
